Like-named read-outs stand apart in the source and are kept apart here. Values belong to the compound of their own block, whether it stands above or below them. *1 amine or outer side, *2 acyl side, *3 side chain or, on linkers, in order; H or OH if unused. Where a SMILES comes first, the peptide text is derived from it. Bridges are numbered along the chain shown (N, C = ends). Where no end group is shown, it is not given here. [ ]: non-standard residue; d: D form. The star is where a group is joined. ξ: configuration not given here. X6 = CC(C)[C@H](CC(=O)[C@H](Cc1ccccc1)N(C)[*:1])C(=O)[*:2]; X2 = O=C(O)c1cc(C(=O)*)ccc1-c1c2ccc(=O)cc-2oc2cc(O)ccc12; PEG12 = NCCOCCOCCOCCOCCOCCOCCOCCOCCOCCOCCOCCOCCC(=O)O; Tyr(Me) = COc1ccc(C[C@H](N[*:1])C(=O)[*:2])cc1; NMePhe(3-Cl) = CN[C@@H](Cc1cccc(Cl)c1)C(=O)O; NMeW = CN[C@@H](Cc1c[nH]c2ccccc12)C(=O)O; NMeY = CN[C@@H](Cc1ccc(O)cc1)C(=O)O; NMeF = CN[C@@H](Cc1ccccc1)C(=O)O; PEG4 = NCCOCCOCCOCCOCCC(=O)O; Dab = NCC[C@H](N)C(=O)O; Aib = CC(C)(N)C(=O)O; ξC = NC(CS)C(=O)O
What was measured:
[1] = target: transferrin receptor (hTfR) (Homo sapiens, UniProt P02786); assay: Intermolecular interaction evaluation test between transferrin receptor (hTfR) and peptide by surface plasmon resonance (SPR); type: binding
Outline: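 hTfR captured on Ni-NTA chip then amine-coupled; peptides run single-cycle kinetics at 5–100 nM in 10 mM HEPES pH 8.0, 150 mM NaCl, 0.05% Tween 20, 0.1% BSA, 1.0% DMSO. KD from least-squares curve fitting of sensorgrams.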

[2] = test system: Human breast cancer cells BT-549; assay: Migration of 5-FAM peptide conjugates into human breast cancer cells BT-549 (fluorescence microscopy); type: cell-based; settings: BT-549 cells, sample diluted to 100 nmol/L, 37° C., 3 hours
Experimental: Culturing was performed under conditions of 37° C. and 5% CO2.
Collagen Type I (Corning) was diluted to 50 µg/mL with 20 mmol/L acetic acid. A sterilized cover glass was placed in each well of the 24-well plate. After the diluted Collagen Type I solution was added to the plate, the plate was incubated at 37° C. for 1 hour. The Collagen Type I solution was removed from the plate and the plate was washed 3 times with PBS. The human breast cancer cells BT-549 were inoculated in an amount of 1 × 10^5 cells per 1 well and cultured overnight under conditions of 37° C. and 5% CO2.
The sample was diluted with the dilution medium to 100 nmol/L.
The sample solution was removed from the 24-well plate, and the BT-549 cells were washed three times with PBS. 4% paraformaldehyde phosphate buffer (FUJIFILM Wako Pure Chemical Corporation) was added at 500 µL/well, and the cells were allowed to stand at room temperature for 15 minutes and then washed three times with PBS. Further, Hoechst 33342 (Thermo Fisher Scientific) diluted with PBS to 2 µg/mL was added at 500 µL/well, and the cells were allowed to stand at room temperature under shading for 10 minutes and then washed three times with PBS. The cover glass was removed from the 24-well plate, and the cells were enclosed on a slide glass using fluorescent mounting medium (Agilent Technologies) and allowed to stand at room temperature under shading overnight. For the observation, an inverted fluorescence microscope DMI6000B (Leica Microsystems) was used, and the observation was performed at the wavelength for detecting FITC and DAPI. The scale bar in the figures indicates 50 µm.

TfR-KI mice = settings: mouse, in vivo
Experimental: hTfRNo.894-vivotag750 conjugate administration liquid (No. 894 administration liquid) : 4.8 µL of dimethyl sulfoxide (DMSO, Sigma Aldrich) was added to 6 µL of a 5 mM solution of the hTfRNo.894-vivotag750 conjugate synthesized in Example 2, 66 µL of the 20% hydroxypropyl-β-cyclodextrin solution was further added, and the mixture was mixed well. To this, 48 µL of polyethylene glycol 400 was further added and mixed to prepare a No. 894-administration liquid. […] The offspring (chimeric mice) thus obtained were determined by hair color, and individuals in which the ES cells contributed to the development of the organism at a higher rate, that is, individuals having a higher proportion of white hairs relative to their total body hairs, were selected. […] White-colored F1 mice were selected, DNA was extracted from their tail tissues and analyzed, and the mice in which the mouse transferrin receptor gene on the chromosome had been heterologously replaced with the chimeric hTfR were selected as the TfR-KI mice. […] After this, tissues for measuring fluorescence intensity (brain, heart, lung, liver, spleen, kidney, quadriceps femoris muscle, thymus, thoracic vertebrae, and femur) were collected and stored in normal saline to prevent drying. […]

[3] = surface plasmon resonance, hTfR, read-out: KD value for hTfR by SPR (class symbol)

transferrin receptor (hTfR), sequence (P02786 whole entry): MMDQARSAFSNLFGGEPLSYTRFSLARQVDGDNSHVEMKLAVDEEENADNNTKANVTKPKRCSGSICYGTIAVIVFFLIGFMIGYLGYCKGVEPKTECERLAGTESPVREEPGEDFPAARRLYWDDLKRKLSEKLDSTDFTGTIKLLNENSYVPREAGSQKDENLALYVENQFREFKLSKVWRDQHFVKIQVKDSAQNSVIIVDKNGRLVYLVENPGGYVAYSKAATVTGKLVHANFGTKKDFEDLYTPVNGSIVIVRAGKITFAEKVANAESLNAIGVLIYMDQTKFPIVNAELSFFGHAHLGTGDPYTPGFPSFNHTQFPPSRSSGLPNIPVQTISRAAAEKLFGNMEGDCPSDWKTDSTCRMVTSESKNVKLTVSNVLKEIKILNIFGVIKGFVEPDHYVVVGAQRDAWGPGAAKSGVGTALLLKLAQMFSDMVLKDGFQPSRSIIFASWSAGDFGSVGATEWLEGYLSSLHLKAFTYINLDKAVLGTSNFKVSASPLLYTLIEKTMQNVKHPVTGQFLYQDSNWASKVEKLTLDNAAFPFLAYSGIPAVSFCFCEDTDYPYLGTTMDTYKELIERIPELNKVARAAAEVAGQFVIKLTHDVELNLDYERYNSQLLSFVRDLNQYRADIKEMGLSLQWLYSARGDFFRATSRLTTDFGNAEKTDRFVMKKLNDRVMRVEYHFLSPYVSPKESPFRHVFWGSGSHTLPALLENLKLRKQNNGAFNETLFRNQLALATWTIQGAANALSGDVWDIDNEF

Compound: Patent ID 449: negative control, 5-FAM labelled conjugate of Flip894_variant61_PEG4, a peptide without binding ability to hTfR ({CH2CO}-A[NMeY]F[dR][Aib]IY[Tyr(Me)]YN[NMeW]V[NMePhe(3-Cl)]VC; thioether N-15; not fully specified (C-terminus); also: methylation at Y2 and W11, type not given here) [reference compound]
hTfR binding ability ([1]; SPR, result in words): no binding to hTfR was observed
migration into the cells [2]: did not migrate into the cells

Compound: CC[C@H](C)[C@@H]1NC(=O)[C@H](Cc2ccc(O)cc2)NC(=O)[C@H](Cc2ccc(O)cc2)NC(=O)[C@H](CC(N)=O)NC(=O)[C@H](Cc2c[nH]c3ccccc23)NC(=O)[C@H](C(C)C)CC(=O)[C@H](Cc2ccccc2)N(C)C(=O)[C@H](C(C)C)NC(=O)[C@H](C)NC(=O)CSCC(C(=O)NCCOCCOCCOCCOCCC(=O)N[C@H](CCCCNC(=O)c2ccc(-c3c4ccc(=O)cc-4oc4cc(O)ccc34)c(C(=O)O)c2)C(N)=O)NC(=O)[C@H](Cc2ccc(O)cc2)N(C)C(=O)[C@H](Cc2ccc(O)cc2)NC(=O)[C@H](CCCNC(=N)N)NC(=O)[C@H](CCCNC(=N)N)NC(=O)[C@H]([C@@H](C)CC)NC1=O (stereo partly shown) [Patent ID 446] ({CH2CO}-AV[X6]WNYYIIRRY[NMeY][ξC][PEG4][dK](X2)-NH2; thioether N-14)
migration into the cells [2]: into the cells was confirmed

Compound: Patent ID 448: 5-FAM labelled conjugate of hTfR_894_variant03_PEG4 (AVXVWNYXIIRXFYC; not fully specified; PEG4 linker, 5-FAM label; (3)..(3) Xaa is MeF3C; MOD_RES (5)..(5) …ON; (8)..(8) Xaa is F4OMe; (12)..(12) Xaa is dr; MOD_RES (14)..(14) …ON)
migration into the cells [2]: into the cells was confirmed

Compound: Patent ID 447: 5-FAM labelled conjugate of hTfR_894_variant61_PEG4 (AVXVWNYXIIXXFYC; not fully specified; PEG4 linker, 5-FAM label; (3)..(3) Xaa is MeF3C; MOD_RES (5)..(5) …ON; (8)..(8) Xaa is F4OMe; (11)..(11) Xaa is Aib; (12)..(12) Xaa is dr; MOD_RES (14)..(14) …ON)
migration into the cells [2]: into the cells was confirmed

Compound: CC[C@H](C)[C@@H]1NC(=O)[C@H](Cc2ccc(O)cc2)NC(=O)[C@H](C)NC(=O)[C@H](CC(N)=O)NC(=O)[C@H](Cc2c[nH]c3ccccc23)NC(=O)[C@H](C(C)C)NC(=O)[C@H](Cc2ccccc2)N(C)C(=O)[C@H](C(C)C)NC(=O)[C@H](C)NC(=O)CSC[C@@H](C(=O)NCCOCCOCCOCCOCCOCCOCCOCCOCCOCCOCCOCCOCCC(N)=O)NC(=O)[C@H](Cc2ccc(O)cc2)N(C)C(=O)[C@H](Cc2ccc(O)cc2)NC(=O)[C@H](CCCNC(=N)N)NC(=O)[C@H](CCCNC(=N)N)NC(=O)[C@H]([C@@H](C)CC)NC1=O [compound 140] ({CH2CO}-AV[NMeF]VWNAYIIRRY[NMeY]C[PEG12]-NH2; thioether N-15)
Kd ([1]; SPR, hTfR No. 894 variants with PEG12c linker (Table 2), read-out: KD): 1 to 100 nM

More lines, main results first:

migration into the brain through the BBB (TfR-KI mice): migrated into the brain through the BBB
Compound: CC[C@H](C)[C@@H]1NC(=O)[C@H](Cc2ccc(O)cc2)NC(=O)[C@H](Cc2ccc(O)cc2)NC(=O)[C@H](CC(N)=O)NC(=O)[C@H](Cc2c[nH]c3ccccc23)NC(=O)[C@H](C(C)C)NC(=O)[C@H](Cc2ccccc2)NC(=O)[C@H](C(C)C)NC(=O)[C@H](C)NC(=O)CSC[C@@H](C(N)=O)NC(=O)[C@H](Cc2ccc(O)cc2)N(C)C(=O)[C@H](Cc2ccc(O)cc2)NC(=O)[C@H](CCCNC(=N)N)NC(=O)[C@H](CCCNC(=N)N)NC(=O)[C@H]([C@@H](C)CC)NC1=O [hTfR No. 894]
migration to tissues (TfR-KI mice): also migrated to each tissue, mainly muscle tissues

Kd [1, 3]: 1 to 100 nM
Compound: CC[C@H](C)[C@@H]1NC(=O)[C@H](Cc2ccc(OC)cc2)NC(=O)[C@H](Cc2ccc(O)cc2)NC(=O)[C@H](CC(N)=O)NC(=O)[C@H](Cc2c[nH]c3ccccc23)N(C)C(=O)[C@H](C(C)C)NC(=O)[C@H](Cc2cccc(Cl)c2)N(C)C(=O)[C@H](C(C)C)NC(=O)[C@H](C)NC(=O)CSC[C@@H](C(=O)NCCOCCOCCOCCOCCC(N)=O)NC(=O)[C@H](Cc2ccc(O)cc2)N(C)C(=O)[C@H](Cc2ccccc2)NC(=O)[C@@H](CCCNC(=N)N)NC(=O)[C@H](CCN)NC(=O)[C@H]([C@@H](C)CC)NC1=O [compound 366] ({CH2CO}-AV[NMePhe(3-Cl)]V[NMeW]NYY(Me)II[Dab][dR]F[NMeY]C[PEG4]-NH2; thioether N-15)

Kd [1, 3]: 1 to 100 nM
Compound: CC[C@H](C)[C@@H]1NC(=O)[C@H](Cc2ccc(OC)cc2)NC(=O)[C@H](Cc2ccc(O)cc2)NC(=O)[C@H](CC(N)=O)NC(=O)[C@H](Cc2c[nH]c3ccccc23)N(C)C(=O)[C@H](C(C)C)NC(=O)[C@H](Cc2cccc(Cl)c2)N(C)C(=O)[C@H](C(C)C)NC(=O)[C@H](C)NC(=O)CSC[C@@H](C(N)=O)NC(=O)[C@H](Cc2ccc(O)cc2)N(C)C(=O)[C@H](Cc2cccc(OC)c2)NC(=O)[C@@H](CCCNC(=N)N)NC(=O)[C@H](CCCNC(=N)N)NC(=O)[C@H]([C@@H](C)CC)NC1=O [compound 394]

— patent publication US20230203098A1, “HUMAN TRANSFERRIN RECEPTOR BINDING PEPTIDE” (priority 2020, published 2023)
